The values below come from patent US7135488B2, “Pyrrolyl-thiazole derivatives” (Hoffmann-La Roche Inc., priority 2003, dated 2006).

Bounds are passed on as bounds.

Test system in the first data set: not given
Test: not given
The following applies: doses of 5, 10 and 20 mg daily; double blind placebo-controlled study; cited from earlier work.
For `Cc1c(C(=O)NN2CCCCC2)nn(-c2ccc(Cl)cc2Cl)c1-c1ccc(Cl)cc1` [SR 141716, Rimonabant], the “body weight compared to placebo” value is “significantly reduced body weight”.

The target in another data set is T1, human cannabis CB1 receptor (Homo sapiens, UniProt P21554).
T1 construct: expressed in transfected cells; host or cells: human embryonic kidney (HEK) cells, Semliki Forest Virus system, membrane preparation
T1 sequence (P21554 whole entry): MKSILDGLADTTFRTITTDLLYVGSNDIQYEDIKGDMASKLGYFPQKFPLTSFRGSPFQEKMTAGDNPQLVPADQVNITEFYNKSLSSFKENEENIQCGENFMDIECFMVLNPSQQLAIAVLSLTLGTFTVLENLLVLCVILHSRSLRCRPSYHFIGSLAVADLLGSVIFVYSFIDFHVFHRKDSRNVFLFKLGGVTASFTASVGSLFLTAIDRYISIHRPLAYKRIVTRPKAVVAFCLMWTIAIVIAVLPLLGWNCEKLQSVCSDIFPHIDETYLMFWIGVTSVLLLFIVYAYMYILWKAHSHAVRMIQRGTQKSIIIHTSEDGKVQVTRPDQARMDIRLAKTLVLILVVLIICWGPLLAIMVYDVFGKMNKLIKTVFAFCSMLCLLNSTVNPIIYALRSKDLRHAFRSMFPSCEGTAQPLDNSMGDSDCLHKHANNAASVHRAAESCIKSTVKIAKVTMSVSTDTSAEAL
In words: CB1 receptor affinity, [3H]-CP-55,940 radioligand binding on HEK cell membranes.
Conditions: not given
The procedure:
The affinity of the compounds of the invention for cannabinoid CB1 receptors was determined using membrane preparations of human embryonic kidney (HEK) cells in which the human cannabis CB1 receptor is transiently transfected using the Semliki Forest Virus system in conjunction with [3H]-CP-55,940 as radioligand. After incubation of a freshly prepared cell membrane preparation with the [3H]-ligand, with or without addition of compounds of the invention, separation of bound and free ligand was performed by filtration over glassfiber filters. Radioactivity on the filter was measured by liquid scintillation counting.
In the case of `CCCCNC(=O)c1cc(-c2csc(-c3ccc(OC)cc3)n2)n(CC2CCCCC2)c1C` [Example 8, Cyclohexylmethyl-5-[2-(4-methoxy-phenyl)-thiazol-4-yl]-2-methyl-1H-pyrrole-3-carboxylic acid butylamide], the IC50 is under 2000 nM.

On to `COc1ccc(-c2nc(-c3cc(C(=O)NN4CCCCC4)c(C)n3CC3CCCCC3)cs2)cc1` [Example 299, Cyclohexylmethyl-5-[2-(4-methoxy-phenyl)-thiazol-4-yl]-2-methyl-1H-pyrrole-3-carboxylic acid piperidin-1-ylamide], for which the IC50 is under 2000 nM.

`COc1ccc(-c2nc(-c3cc(C(=O)NCc4ccccn4)c(C)n3CC3CCCCC3)cs2)cc1` [Example 305, Cyclohexylmethyl-5-[2-(4-methoxy-phenyl)-thiazol-4-yl]-2-methyl-1H-pyrrole-3-carboxylic acid (pyridin-2-ylmethyl)-amide] returned an IC50 of under 2000 nM.

For `COc1ccc(-c2nc(-c3cc(C(=O)N4CCCCC4)c(C)n3CC3CCCCC3)cs2)cc1` [Example 311, {1-Cyclohexylmethyl-5-[2-(4-methoxy-phenyl)-thiazol-4-yl]-2-methyl-1H-pyrrol-3-yl}-piperidin-1-yl-methanone], the half-maximal inhibitory concentration (IC50) was under 2000 nM.

`COc1ccc(-c2nc(-c3cc(C(=O)Nc4ccccc4)c(C)n3CC3CCCCC3)cs2)cc1` [Example 315, Cyclohexylmethyl-5-[2-(4-methoxy-phenyl)-thiazol-4-yl]-2-methyl-1H-pyrrole-3-carboxylic acid phenylamide] returned a concentration for half-maximal inhibition (IC50) of under 2000 nM.

The compound `COc1ccc(-c2nc(-c3cc(C(=O)Nc4ncccn4)c(C)n3CC3CCCCC3)cs2)cc1` [Example 324, Cyclohexylmethyl-5-[2-(4-methoxy-phenyl)-thiazol-4-yl]-2-methyl-1H-pyrrole-3-carboxylic acid pyrimidin-2-ylamide] yielded an IC50 of under 2000 nM.

As for `CCCCNC(=O)c1cc(-c2csc(-c3ccc(OC)cc3)n2)n(Cc2ccccc2)c1C` [Example 333, Benzyl-5-[2-(4-methoxy-phenyl)-thiazol-4-yl]-2-methyl-1H-pyrrole-3-carboxylic acid butylamide], the IC50 was under 2000 nM.

`CCCCNC(=O)c1cc(-c2csc(-c3ccc4c(c3)OCO4)n2)n(CC2CCCCC2)c1C` [Example 340, 5-(2-Benzo[1,3]dioxol-5-yl-thiazol-4-yl)-1-cyclohexylmethyl-2-methyl-1H-pyrrole-3-carboxylic acid butylamide]: the IC50 is under 2000 nM.

For `COc1ccc(-c2nc(-c3cc(C(=O)NC4CCCCC4)c(C)n3CC3CCCCC3)cs2)cc1` [Example 356, Cyclohexylmethyl-5-[2-(4-methoxy-phenyl)-thiazol-4-yl]-2-methyl-1H-pyrrole-3-carboxylic acid cyclohexylamide], the IC50 is under 2000 nM.

Regarding `CCCCNC(=O)c1cc(-c2csc(C3CCCCC3)n2)n(CC2CCCCC2)c1C` [Example 375, Cyclohexylmethyl-5-(2-cyclohexyl-thiazol-4-yl)-2-methyl-1H-pyrrole-3-carboxylic acid butylamide], the IC50 was under 2000 nM.

Staying with this data set, now noted: membranes of HEK cells transiently transfected with human CB1 receptor; radioligand [3H]-CP-55,940; read-out: IC50 (affinity for the CB1 receptor).
With `CCCCNC(=O)c1cc(-c2csc(-c3ccc(OC)cc3)n2)n(Cc2ccccn2)c1C` [Example 371, 5-[2-(4-Methoxy-phenyl)-thiazol-4-yl]-2-methyl-1-pyridin-2-ylmethyl-1H-pyrrole-3-carboxylic acid butylamide], the half-maximal inhibitory concentration (IC50) was under 2000 nM.

Test system in another data set: not given
Test: not given
Conditions: not given
For the compound `CCCCNC(=O)c1cc(-c2csc(-c3ccc([N+](=O)[O-])cc3)n2)n(CC2CCCCC2)c1C` [Example 1, Cyclohexylmethyl-2-methyl-5-[2-(4-nitro-phenyl)-thiazol-4-yl]-1H-pyrrole-3-carboxylic acid butylamide], the melting point lay in the range of 184 to 187 °C.

Broadly, the IC50 is the concentration at which inhibition is half-maximal. By melting point is commonly meant the temperature, or range, at which the solid turns liquid.
